Test systems include XF 498 CNS; HOP-18 NSCLC; SN12K1 renal; DMS 114 small cell lung; P388/ADR leukemia; RXF-631 renal; LXFL 529 NSCLC; P388 leukemia.
Common to all, as to test: NCI tumour cell line growth inhibition, 48 h

Where “and” joins values, the source holds several entries; their conditions need not be identical. Equal entries are not always repeated.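 1) Cells in 96-well plates. 2) Compound, 48 h, 5 concentrations. 3) Linear interpolation between surrounding doses. 4) Unreached endpoint = highest concentration. Here, GI50 denotes the concentration required for 50% inhibition of growth. TGI denotes the concentration required for complete inhibition of growth.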

Turning to `CC(=O)Oc1c(OC(C)=O)c(-c2ccc(O)c(O)c2)c(O)c(O)c1-c1ccc(O)cc1`, the GI50 in the experiment on XF 498 CNS was 46 µM; in the experiment with SN12K1 renal it was 48.6 µM; in the experiment on DMS 114 small cell lung, 19.1 µM. Further, the TGI in the experiment on XF 498 CNS was more than 100 µM; with HOP-18 NSCLC it was more than 100 µM; with SN12K1 renal it was more than 100 µM; in the experiment with DMS 114 small cell lung, 44 µM and 57.4 µM; in the experiment on P388/ADR leukemia it was 50 µM.

With `COc1cc2c(cc1OC)C(Cl)C(c1cc(OC)c(OC)c(OC)c1)=C2Cl` (stereo not drawn), the TGI in the experiment with HOP-18 NSCLC came to 32.3 µM; with RXF-631 renal it was 38.2 µM; with DMS 114 small cell lung, 26.2 µM; in the experiment with LXFL 529 NSCLC, 24.6 µM.

In the case of `Cc1ccc2[nH]c3c(C)c4ccncc4c(C)c3c2c1`, the TGI came to 3 µM with XF 498 CNS; 3.09 µM in the experiment with P388 leukemia; 4.6 µM in the experiment with HOP-18 NSCLC; 2.29 µM with SN12K1 renal; 2.71 µM with DMS 114 small cell lung; 3.62 µM with P388/ADR leukemia. Besides, in the experiment on LXFL 529 NSCLC, the TGI was found to be 2.42 µM.

Turning to `O=C1c2cc(CCl)sc2C(=O)c2ccsc21`, the TGI in the experiment with XF 498 CNS worked out at 3.1 µM; in the experiment with HOP-18 NSCLC it was 0.797 µM; in the experiment on DMS 114 small cell lung it was 0.298 µM; with LXFL 529 NSCLC, 0.609 µM.

With `COc1cc(CC2c3cc(OC)c(OC)cc3CCN2C)c(Oc2cc3c(cc2OC)-c2c(OC)c(OC)c(OC)c4c2C(C3)N(C)CC4)cc1OC` (stereo not drawn), the TGI is 26.6 µM in the experiment on XF 498 CNS, 31.1 µM with HOP-18 NSCLC, 26 µM in the experiment with DMS 114 small cell lung and 27.1 µM in the experiment with LXFL 529 NSCLC.

Regarding `CCN(CC)CCNc1ccc(C)c2sc3ccc(O)cc3c(=O)c12`, the TGI turned out to be 2.56 µM in the experiment on XF 498 CNS, 5.94 µM with HOP-18 NSCLC, 2.27 µM in the experiment with DMS 114 small cell lung and 2.54 µM with LXFL 529 NSCLC.

Turning to `CN1OC(=O)N(C)C1c1ccccc1` (stereo not drawn), the TGI with XF 498 CNS, with P388 leukemia, with HOP-18 NSCLC, in the experiment on SN12K1 renal, in the experiment with DMS 114 small cell lung and in the experiment with P388/ADR leukemia was more than 100 µM in each case.

Consider `CC(=O)c1cccc(NC2C(N)C(NC(=O)N(C)C)(C(C)O)C(C)(O)C2(O)COC(=O)c2c(C)cccc2O)c1` (stereo not drawn), for which the figures for the TGI with DMS 114 small cell lung and in the experiment with LXFL 529 NSCLC were 0.0855 µM and 1.01 µM, respectively.

As for `C=C1C(=O)OC2/C=C(\C)C(O)/C=C\C(C)(O)CC(OC(=O)/C(C)=C/C)C12` (stereo not drawn), the TGI with XF 498 CNS was more than 58.4 µM; in the experiment on HOP-18 NSCLC, more than 100 µM; in the experiment on RXF-631 renal, more than 100 µM; with DMS 114 small cell lung, more than 78.2 µM; with LXFL 529 NSCLC, 29.1 µM.

Consider `Nc1ccn(C2OC(COP(=O)(O)Oc3ccccc3)C(O)C2O)c(=O)n1` (stereo not drawn), for which the TGI in the experiment with P388 leukemia is 15.7 µM; in the experiment on HOP-18 NSCLC it was 98.1 µM; with SN12K1 renal, more than 100 µM; in the experiment on DMS 114 small cell lung, more than 100 µM; in the experiment with P388/ADR leukemia, more than 100 µM.

For `Cc1nc(-c2nc([N+](=O)[O-])c([N+](=O)[O-])[nH]2)cs1`, the TGI in the experiment with XF 498 CNS, in the experiment on RXF-631 renal, in the experiment on DMS 114 small cell lung and in the experiment on LXFL 529 NSCLC was more than 100 µM each time.

For the origin of these results see PubChem BioAssay (NCI).
